Test results reported in patent publication US10131679B2, “Substituted dihydropyrrolopyrazole compound” (UBE INDUSTRIES, LTD., priority 2014, dated 2018).

Legend:
[1] = tested on: human large intestine cancer cell line (HCT-116); test: Human large intestine cancer (HCT-116) cell growth inhibition test; type: cell-based; details: 72 h, HCT-116, culture for 3 days, sulforhodamine B absorbance
How it was run: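 HCT-116 cells seeded at 1.0×10^3 cells/well in McCoy's 5a with 10% FBS, then exposed to compound (0.1% DMSO final) for 3 days. Growth measured by sulforhodamine B absorbance; IC50 derived from concentration-inhibition data.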

CDK7 = target: T1, CDK7 (Homo sapiens, UniProt P50613); test: CDK7 enzyme inhibition test; type: biochemical; details: Ki=IC50/(1+S/Km); 33P bound to MBP, [γ-33P]ATP, 30° C. for 20 minutes; read-out: Ki value of CDK7 inhibitory activity
T1 construct: purchased Carna Biosciences, Inc. 04-108
T1 sequence (P50613 whole entry): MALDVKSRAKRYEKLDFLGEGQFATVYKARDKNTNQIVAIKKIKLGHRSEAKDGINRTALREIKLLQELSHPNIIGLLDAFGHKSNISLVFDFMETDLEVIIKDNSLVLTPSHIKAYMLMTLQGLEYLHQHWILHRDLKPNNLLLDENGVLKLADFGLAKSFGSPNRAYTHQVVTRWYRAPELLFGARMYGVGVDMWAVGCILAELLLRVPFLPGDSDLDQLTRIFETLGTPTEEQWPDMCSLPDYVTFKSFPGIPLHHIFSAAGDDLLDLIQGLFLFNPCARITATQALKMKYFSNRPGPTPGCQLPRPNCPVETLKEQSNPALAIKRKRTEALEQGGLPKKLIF
T1 sequence (P51946 whole entry partner): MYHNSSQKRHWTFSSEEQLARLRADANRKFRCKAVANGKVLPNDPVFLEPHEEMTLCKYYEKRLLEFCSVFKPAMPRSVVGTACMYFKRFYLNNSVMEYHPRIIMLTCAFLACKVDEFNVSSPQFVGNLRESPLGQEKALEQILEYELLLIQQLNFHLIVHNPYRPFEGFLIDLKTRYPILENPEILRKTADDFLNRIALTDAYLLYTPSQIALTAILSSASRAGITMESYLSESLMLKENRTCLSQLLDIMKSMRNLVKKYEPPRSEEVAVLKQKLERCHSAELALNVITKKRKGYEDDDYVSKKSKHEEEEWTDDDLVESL
T1 sequence (P51948 whole entry partner): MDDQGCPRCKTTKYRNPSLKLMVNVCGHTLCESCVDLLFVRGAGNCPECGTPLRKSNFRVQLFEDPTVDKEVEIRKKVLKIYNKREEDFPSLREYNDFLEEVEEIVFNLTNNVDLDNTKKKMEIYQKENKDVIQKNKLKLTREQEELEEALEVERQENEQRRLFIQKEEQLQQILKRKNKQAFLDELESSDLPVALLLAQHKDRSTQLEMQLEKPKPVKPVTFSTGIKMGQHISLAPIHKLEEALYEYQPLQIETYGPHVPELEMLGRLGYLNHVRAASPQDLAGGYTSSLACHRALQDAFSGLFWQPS
How it was run: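 Recombinant CDK7 with MBP substrate and [γ-33P]ATP (500 μM solution, diluted into the mix) in HEPES pH 7.4/DTT/Triton X-100/MgCl2, 20 min at 30 °C. TCA-precipitated 33P-MBP counted by scintillation; IC50 from inhibition, Ki = IC50/(1+S/Km).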

CDK2 = target: T2, CDK2 (Homo sapiens, UniProt P24941); test: CDK2 enzyme inhibition test; type: biochemical; details: Ki=IC50/(1+S/Km); 33P bound to MBP, [γ-33P]ATP, 30° C. for 20 minutes; read-out: Ki value of CDK2 inhibitory activity
T2 construct: purchased Invitrogen Corp. PV3267
How it was run: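 Commercial CDK2 with MBP substrate and [γ-33P]ATP (500 μM solution, before mixing) in HEPES pH 7.4 buffer with DTT, Triton X-100 and MgCl2; 20 min at 30 °C. TCA-precipitated 33P-MBP counted by liquid scintillation; IC50 from inhibition of 33P incorporation, Ki = IC50/(1+S/Km).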

With `CC(C)(CO)C(NC(=O)N1Cc2c(NC(=O)C3([Si](C)(C)C)CCC3)n[nH]c2C1(C)C)c1ccccc1` (racemic) [IV-354, N-(3-Hydroxy-2,2-dimethyl-1-phenylpropyl)-6,6-dimethyl-3-[1-(trimethylsilyl)cyclobutanecarboxamido]-4,6-dihydropyrrolo[3,4-c]pyrazole-5(1H)-carboxamide] the IC50 [1] was ≤ 500 nM.

`CC(C)(CO)C(NC(=O)N1Cc2c(NC(=O)C3([Si](C)(C)C)CCC3)n[nH]c2C1(C)C)c1ccccc1` (single isomer, unassigned; (-)) [IV-673, (−)-N-(3-Hydroxy-2,2-dimethyl-1-phenylpropyl)-6,6-dimethyl-3-[1-(trimethylsilyl)cyclobutanecarboxamido]-4,6-dihydropyrrolo[3,4-c]pyrazole-5(1H)-carboxamide] was tested, and the Ki (CDK7) was ≤ 50 nM and the IC50 [1] was ≤ 500 nM.

With `CC1(C)c2[nH]nc(NC(=O)C(C)(C)[Si](C)(C)C)c2CN1C(=O)N[C@H](CO)c1ccccc1` [II-114, (S)—N-(2-Hydroxy-1-phenylethyl)-6,6-dimethyl-3-[2-methyl-2-(trimethylsilyl)propanamido]-4,6-dihydropyrrolo[3,4-c]pyrazole-5(1H)-carboxamide] the Ki (CDK7) was ≤ 50 nM, the Ki (CDK2) was ≥ 1000 nM and the IC50 [1] was ≤ 500 nM.

For `CC1(C)c2[nH]nc(NC(=O)C3([Si](C)(C)C)CC3)c2CN1C(=O)N[C@H](CO)c1ccccc1` [III-114, (S)—N-(2-Hydroxy-1-phenylethyl)-6,6-dimethyl-3-[1-(trimethylsilyl)cyclopropanecarboxamido]-4,6-dihydropyrrolo[3,4-c]pyrazole-5(1H)-carboxamide], the Ki (CDK7) was ≤ 50 nM, the Ki (CDK2) was ≥ 1000 nM and the IC50 [1] was ≤ 500 nM.

For `CC1(C)c2[nH]nc(NC(=O)C3([Si](C)(C)C)CCC3)c2CN1C(=O)O[C@H](CO)c1ccccc1` [IV-2, (S)-2-Hydroxy-1-phenylethyl 6,6-dimethyl-3-[1-(trimethylsilyl)cyclobutanecarboxamido]-4,6-dihydropyrrolo[3,4-c]pyrazole-5(1H)-carboxylate], the Ki (CDK7) was ≤ 50 nM, the Ki (CDK2) was ≥ 1000 nM and the IC50 [1] was ≤ 500 nM.

With `CC1(C)c2[nH]nc(NC(=O)C3([Si](C)(C)C)CCC3)c2CN1C(=O)N[C@H](CO)c1ccccc1` [IV-114, (S)—N-(2-Hydroxy-1-phenylethyl)-6,6-dimethyl-3-[1-(trimethylsilyl)cyclobutanecarboxamido]-4,6-dihydropyrrolo[3,4-c]pyrazole-5(1H)-carboxamide] the Ki (CDK7) was ≤ 50 nM, the Ki (CDK2) was ≥ 1000 nM and the IC50 [1] was ≤ 500 nM.

For `CC[Si](C)(C)C1(C(=O)Nc2n[nH]c3c2CN(C(=O)N[C@H](CO)c2ccccc2)C3(C)C)CCC1` [IV-117, (S)-3-[1-(Ethyldimethylsilyl)cyclobutanecarboxamido]-N-(2-hydroxy-1-phenylethyl)-6,6-dimethyl-4,6-dihydropyrrolo[3,4-c]pyrazole-5(1H)-carboxamide], the Ki (CDK7) was ≤ 50 nM, the Ki (CDK2) was ≥ 1000 nM and the IC50 [1] was ≤ 500 nM.

With `CN(C(=O)N1Cc2c(NC(=O)C3([Si](C)(C)C)CCC3)n[nH]c2C1(C)C)[C@H](CO)c1ccccc1` [IV-119, (S)—N-(2-Hydroxy-1-phenylethyl)-N,6,6-trimethyl-3-[1-(trimethylsilyl)cyclobutanecarboxamido]-4,6-dihydropyrrolo[3,4-c]pyrazole-5(1H)-carboxamide] the Ki (CDK7) was ≤ 50 nM, the Ki (CDK2) was ≥ 1000 nM and the IC50 [1] was ≤ 500 nM.

In the case of `COC[C@@H](NC(=O)N1Cc2c(NC(=O)C3([Si](C)(C)C)CCC3)n[nH]c2C1(C)C)c1ccccc1` [IV-123, (S)—N-(2-Methoxy-1-phenylethyl)-6,6-dimethyl-3-[1-(trimethylsilyl)cyclobutanecarboxamido]-4,6-dihydropyrrolo[3,4-c]pyrazole-5(1H)-carboxamide], the Ki (CDK7) is reported as ≤ 50 nM, the Ki (CDK2) is reported as ≥ 1000 nM and the IC50 [1] is reported as ≤ 500 nM.

For `CCOC[C@@H](NC(=O)N1Cc2c(NC(=O)C3([Si](C)(C)C)CCC3)n[nH]c2C1(C)C)c1ccccc1` [IV-139, (S)—N-(2-Ethoxy-1-phenylethyl)-6,6-dimethyl-3-[1-(trimethylsilyl)cyclobutanecarboxamido]-4,6-dihydropyrrolo[3,4-c]pyrazole-5(1H)-carboxamide], the Ki (CDK7) was ≤ 50 nM and the IC50 [1] was ≤ 500 nM.

With `C[C@@H](CO)NC(=O)N1Cc2c(NC(=O)C3([Si](C)(C)C)CCC3)n[nH]c2C1(C)C` [IV-455, (S)—N-(1-Hydroxypropan-2-yl)-6,6-dimethyl-3-[1-(trimethylsilyl)cyclobutanecarboxamido]-4,6-dihydropyrrolo[3,4-c]pyrazole-5(1H)-carboxamide] the Ki (CDK7) was ≤ 50 nM and the Ki (CDK2) was ≥ 1000 nM.

With `CC1(C)c2[nH]nc(NC(=O)C3([Si](C)(C)C)CCC3)c2CN1C(=O)NC(c1ccccc1)C1(CO)CCC1` (stereo not drawn) [IV-718, N-{[1-(Hydroxymethyl)cyclobutyl](phenyl)methyl}-6,6-dimethyl-3-[1-(trimethylsilyl)cyclobutanecarboxamido]-4,6-dihydropyrrolo[3,4-c]pyrazole-5(1H)-carboxamide] the Ki (CDK2) was ≥ 1000 nM and the IC50 [1] was ≤ 500 nM.

In the case of `CC(C)(CO)C(NC(=O)N1Cc2c(NC(=O)C3([Si](C)(C)C)CCC3)n[nH]c2C1(C)C)c1cccc(F)c1` (stereo not drawn) [IV-918, N-[1-(3-Fluorophenyl)-3-hydroxy-2,2-dimethylpropyl]-6,6-dimethyl-3-[1-(trimethylsilyl)cyclobutanecarboxamido]-4,6-dihydropyrrolo[3,4-c]pyrazole-5(1H)-carboxamide], the IC50 [1] is reported as ≤ 500 nM.

With `CC(C)(CO)C(NC(=O)N1Cc2c(NC(=O)C3([Si](C)(C)C)CCC3)n[nH]c2C1(C)C)c1ccc(F)cc1` (stereo not drawn) [IV-946, N-[1-(4-Fluorophenyl)-3-hydroxy-2,2-dimethylpropyl]-6,6-dimethyl-3-[1-(trimethylsilyl)cyclobutanecarboxamido]-4,6-dihydropyrrolo[3,4-c]pyrazole-5(1H)-carboxamide] the Ki (CDK2) was ≥ 1000 nM and the IC50 [1] was ≤ 500 nM.

`CO[C@@H](C(=O)N1Cc2c(NC(=O)C3([Si](C)(C)C)CCC3)n[nH]c2C1(C)C)c1ccccc1` [IV-1175, (R)—N-[5-(2-Methoxy-2-phenylacetyl)-6,6-dimethyl-1,4,5,6-tetrahydropyrrolo[3,4-c]pyrazol-3-yl]-1-(trimethylsilyl)cyclobutanecarboxamide] was tested, and the Ki (CDK7) was ≤ 50 nM and the IC50 [1] was ≤ 500 nM.

In the case of `CC[Si](C)(C)C1(C(=O)Nc2n[nH]c3c2CN(C(=O)[C@H](OC)c2ccccc2)C3(C)C)CCC1` [IV-1178, (R)-1-(Ethyldimethylsilyl)-N-[5-(2-methoxy-2-phenylacetyl)-6,6-dimethyl-1,4,5,6-tetrahydropyrrolo[3,4-c]pyrazol-3-yl] cyclobutanecarboxamide], the Ki (CDK7) is reported as ≤ 50 nM and the IC50 [1] is reported as ≤ 500 nM.

For `CC1(C)c2[nH]nc(NC(=O)C3([Si](C)(C)C)CCC3)c2CN1C(=O)[C@H](OC(F)F)c1ccccc1` [IV-1180, (R)—N-{5-[2-(Difluoromethoxy)-2-phenylacetyl]-6,6-dimethyl-1,4,5,6-tetrahydropyrrolo[3,4-c]pyrazol-3-yl}-1-(trimethylsilyl)cyclobutanecarboxamide], the Ki (CDK7) was ≤ 50 nM and the IC50 [1] was ≤ 500 nM.

`CC1(C)c2[nH]nc(NC(=O)C3([Si](C)(C)C)CCC3)c2CN1C(=O)[C@H](OC(F)(F)F)c1ccccc1` [IV-1184, (R)—N-{6,6-Dimethyl-5-[2-phenyl-2-(trifluoromethoxy)acetyl]-1,4,5,6-tetrahydropyrrolo[3,4-c]pyrazol-3-yl}-1-(trimethylsilyl)cyclobutanecarboxamide] was tested, and the Ki (CDK2) was ≥ 1000 nM and the IC50 [1] was ≤ 500 nM.

With `CCO[C@@H](C(=O)N1Cc2c(NC(=O)C3([Si](C)(C)C)CCC3)n[nH]c2C1(C)C)c1ccccc1` [IV-1188, (R)—N-[5-(2-Ethoxy-2-phenylacetyl)-6,6-dimethyl-1,4,5,6-tetrahydropyrrolo[3,4-c]pyrazol-3-yl]-1-(trimethylsilyl)cyclobutanecarboxamide] the Ki (CDK7) was ≤ 50 nM and the IC50 [1] was ≤ 500 nM.

For `CC1(C)c2[nH]nc(NC(=O)C3([Si](C)(C)C)CCC3)c2CN1C(=O)[C@H](OC1CC1)c1ccccc1` [IV-1208, (R)—N-[5-(2-Cyclopropoxy-2-phenylacetyl)-6,6-dimethyl-1,4,5,6-tetrahydropyrrolo[3,4-c]pyrazol-3-yl]-1-(trimethylsilyl)cyclobutanecarboxamide], the Ki (CDK7) was ≤ 50 nM and the IC50 [1] was ≤ 500 nM.

With `CO[C@@H](C(=O)N1Cc2c(NC(=O)C3([Si](C)(C)C)CCC3)n[nH]c2C1(C)C)c1ccccc1F` [IV-1383, (R)—N-{5-[2-(2-Fluorophenyl)-2-methoxyacetyl]-6,6-dimethyl-1,4,5,6-tetrahydropyrrolo[3,4-c]pyrazol-3-yl}-1-(trimethylsilyl)cyclobutanecarboxamide] the Ki (CDK7) was ≤ 50 nM and the IC50 [1] was ≤ 500 nM.

In the case of `COC(C(=O)N1Cc2c(NC(=O)C3([Si](C)(C)C)CCC3)n[nH]c2C1(C)C)c1cccc(F)c1` (stereo not drawn) [IV-1404, N-{5-[2-(3-Fluorophenyl)-2-methoxyacetyl]-6,6-dimethyl-1,4,5,6-tetrahydropyrrolo[3,4-c]pyrazol-3-yl}-1-(trimethylsilyl)cyclobutanecarboxamide], the Ki (CDK7) is reported as ≤ 50 nM and the IC50 [1] is reported as ≤ 500 nM.

`COC(C(=O)N1Cc2c(NC(=O)C3([Si](C)(C)C)CCC3)n[nH]c2C1(C)C)c1cccs1` (stereo not drawn) [IV-1546, N-{5-[2-Methoxy-2-(thiophen-2-yl)acetyl]-6,6-dimethyl-1,4,5,6-tetrahydropyrrolo[3,4-c]pyrazol-3-yl}-1-(trimethylsilyl)cyclobutanecarboxamide] was tested, and the Ki (CDK7) was ≤ 50 nM and the IC50 [1] was ≤ 500 nM.
